Measured values published in patent publication US20230120142A1, “COMPOSITIONS AND METHODS FOR THE TREATMENT OF INTRACELLULAR BACTERIAL INFECTIONS” (Endolytix Technology, Inc., priority 2020, published 2023).

What follows are compounds tested on M. abscessus cells (assay: Cell growth assay of ABIα plus antibiotic, Fractional Inhibitory Concentration (FIC) index). Conditions: antibiotic in combination with ABIα cocktail; FIG. 5.
Type: cell-based, Mycobacterium abscessus

Row | SMILES | interaction by Fractional Inhibitory Concentration (FIC) index on attenuation of M. abscessus growth
1 | C[C@@H](O)[C@H]1C(=O)N2C(C(=O)[O-])=C(SC3Cn4cnc[n+]4C3)[C@H](C)[C@H]12 (stereo partly drawn) [biapenem] | synergistic effects
2 | CO[C@@]1(NC(=O)Cc2cccs2)C(=O)N2C(C(=O)O)=C(COC(N)=O)CS[C@@H]21 [cefoxitin] | synergistic effects
3 | NCC[C@H](O)C(=O)N[C@@H]1C[C@H](N)[C@@H](O[C@H]2O[C@H](CN)[C@@H](O)[C@H](O)[C@H]2O)[C@H](O)[C@H]1O[C@H]1O[C@H](CO)[C@@H](O)[C@H](N)[C@H]1O [amikacin] | synergistic effects
